One data set deals with cholesterol. The data set is described as follows: Antilipemic effect: percent total cholesterol inhibition in plasma of rats given an olive oil-cholesterol mixture. In kind it is in vivo, male Wistar rats. The settings on record: plasma 8 hours after dosing, Wistar rat; for inhibition in vivo at 100 mg/kg: oral 100 mg/kg, read-out: Anti-lipemic effect, CS (percent cholesterol inhibition). How it is done:
(§1) The above compounds of this invention are tested by the following methods for antilipemic effect and acute toxicity. In the column of antilipemic effect in the table, the asterisked values indicate the effect achieved by orally giving 200 mg/kg of the compounds concerned, and the unmarked values, the effect attained by orally giving 100 mg/kg. In the same column, "TG" stands for percent triglycerides inhibition and "CS" percent cholesterol inhibition.
(§2) Seven-week-old male Wistar rats weighing 200 to 220 g are used, 5 rats in each group.
(§3) Each compound of the invention (100 mg or 200 mg) is dissolved in 10 ml of an olive oil-cholesterol mixture (containing 15% of cholesterol). The mixture containing the compound is orally given to the rat with a probe at a dose of 10 ml/kg. Two or 8 hours thereafter, 6 ml of whole blood is withdrawn from the descending aorta of the rat under ether anesthesia with a syringe containing heparin. The blood is centrifuged at 5° C. and 3000 r.p.m. to obtain the plasma. The plasma collected after the lapse of 2 hours is used for determining the triglycerides content, and the plasma obtained 8 hours later for determining the total cholesterol content, using a triglycerides measuring kit (trade mark "Triglycerides-B Test Wako," product of Wako Junyaku Co., Ltd., Japan) and a total cholesterol measuring kit (trade mark "Cholesterol Test Wako," product of the same), respectively. The olive oil-cholesterol mixture containing no compound is similarly given to a control group, while no treatment is conducted for a normal group. The triglycerides and total cholesterol contents in the plasma are also determined for these groups in the same manner as is the case with the test groups.
(§4) The present hyperlipidemia inhibition achieved by the present compound is given by [formula] in which A is the triglycerides (cholesterol) content of the control group, B is the triglycerides (cholesterol) content of the normal group, and C is the triglycerides (cholesterol) content of the group to which the present compound is given.

The nature of a further data set: Acute toxicity. Particulars: rat, in vivo. The text has this: Six-week-old male Wistar rats weighing 180 to 200 g are used, 5 rats in each group. Each compound of the invention is suspended in a 30% aqueous solution of polyethylene glycol 6000 and orally given to the rat at the dosage shown in Table 2. The animals are checked for poisoning, body weight and survival to determine the LD50 value.

For the next data set, the system named is triglycerides. The data set is described as follows: Antilipemic effect: percent triglycerides inhibition in plasma of rats given an olive oil-cholesterol mixture. In kind it is in vivo, male Wistar rats. Particulars: plasma 2 hours after dosing, Wistar rat; for inhibition in vivo at 100 mg/kg: oral 100 mg/kg, read-out: Anti-lipemic effect, TG (percent triglycerides inhibition). How it is done:
as §1, §2, §3, §4

Read-outs that look alike come from different tables or passages of the source. Where only a bound is given, the exact number is not on record here.

The LD50 is the dose expected to kill half of the subjects tested.

With `Cc1cc(C)c(S(=O)(=O)OCC(=O)CC(C)(C)C)c(C)c1` [Compound 82], the inhibition in vivo at 100 mg/kg with cholesterol was 66%; in the data set on triglycerides it was 56%. In “Acute toxicity” (po), this molecule returned an LD50 of over 3000 mg/kg.
For `Cc1cc(C)c(S(=O)(=O)OCC(=O)CCC(C)C)c(C)c1` [Compound 83], the inhibition in vivo at 100 mg/kg in the data set with cholesterol was 71%; in the data set on triglycerides, 68%. In addition, the LD50 in “Acute toxicity” (po) is over 3000 mg/kg.
With `CCCC(=O)COS(=O)(=O)c1c(C)cc(C)c(C)c1C` [Compound 95, 2-oxopentyl-2,3,4,6-tetramethylbenzene sulfonate], the inhibition in vivo at 100 mg/kg in the data set on cholesterol was 97%; with triglycerides, 96%. For the same molecule, in “Acute toxicity” (oral, six-week-old male Wistar rats, suspended in 30% aqueous polyethylene glycol 6000, read-out: LD50), the LD50 was over 3000 mg/kg.
Take `CCCCCCC(=O)COS(=O)(=O)c1c(C)cc(C)c(C)c1C` [Compound 97]: the inhibition in vivo at 100 mg/kg in the data set with cholesterol is 47%; in the data set with triglycerides, 55%. The LD50 in “Acute toxicity” (po) is over 3000 mg/kg.
For `CCC(C)C(=O)COS(=O)(=O)c1c(C)cc(C)c(C)c1C` (stereo not drawn) [Compound 99] the same measures were 78%, 72% and over 3000 mg/kg.
With `CCCCC(CC)C(=O)COS(=O)(=O)c1c(C)cc(C)c(C)c1C` (stereo not drawn) [Compound 100], the “Anti-lipemic effect, CS (percent cholesterol inhibition), asterisked” value in the data set with cholesterol (oral 200 mg/kg (asterisked values)) is on record as 42%. Also, in the data set “Acute toxicity” (po), the LD50 was over 4000 mg/kg. Moreover, the inhibition in vivo at 200 mg/kg with triglycerides (oral 200 mg/kg (asterisked values), read-out: Anti-lipemic effect, TG (percent triglycerides inhibition), asterisked) was 66%.
Turning to `CCCC(=O)COS(=O)(=O)c1ccc(C)cc1C` [Compound 112], the results for the inhibition in vivo at 100 mg/kg in the data set with cholesterol and in the data set with triglycerides were 62% and 80%, respectively. Further, the LD50 in “Acute toxicity” (po) was over 2000 mg/kg.
For `CCCC(=O)COS(=O)(=O)c1c(CC)cc(CC)cc1CC` [Compound 114] the same measures were 76%, 87% and over 3000 mg/kg.
The like results for `CCCC(=O)COS(=O)(=O)c1ccc(C)c(C)c1C` [Compound 117] were, in that order, 71%, 70% and over 2000 mg/kg.
Consider `CCC(CC)C(=O)COS(=O)(=O)c1ccc(C)cc1` [Compound 121], for which the figures for the inhibition in vivo at 100 mg/kg in the data set on cholesterol and in the data set on triglycerides were 66% and 63%, respectively. In the data set “Acute toxicity” (po), the median lethal dose (LD50) was over 3000 mg/kg.
The like results for `CCCC(C)C(=O)COS(=O)(=O)c1ccc(C)cc1` (stereo not drawn) [Compound 122] were, in that order, 51%, 65% and over 3000 mg/kg.
The like results for `CCCC(CC)C(=O)COS(=O)(=O)c1ccc(C)cc1` (stereo not drawn) [Compound 123] were, in that order, 60%, 67% and over 3000 mg/kg.
The like results for `CCCC(CCC)C(=O)COS(=O)(=O)c1ccc(C)cc1` [Compound 124] were, in that order, 42%, 62% and over 3000 mg/kg.
Consider `CCC(C)CC(=O)COS(=O)(=O)c1ccc(C)cc1` (stereo not drawn) [Compound 125], for which the inhibition in vivo at 100 mg/kg stood at 44% in the data set on cholesterol and 68% with triglycerides. The same molecule yielded an LD50 in the data set “Acute toxicity” (po) of over 3000 mg/kg.
The like results for `Cc1ccc(S(=O)(=O)OCC(=O)CCC(C)C)cc1` [Compound 126] were, in that order, 47%, 61% and over 3000 mg/kg.
For `CCCCC(C)C(=O)COS(=O)(=O)c1ccc(C)cc1` (stereo not drawn) [Compound 127] the same measures were 67%, 92% and over 3000 mg/kg.
The like results for `CCCCC(CCC)C(=O)COS(=O)(=O)c1ccc(C)cc1` (stereo not drawn) [Compound 128] were, in that order, 51%, 62% and over 3000 mg/kg.
Take `CCOc1ccc(S(=O)(=O)OCC(=O)C(CC)CC)cc1` [Compound 131]: the inhibition in vivo at 100 mg/kg in the data set with cholesterol was found to be 97%; in the data set on triglycerides, 110%. For the same molecule, the LD50 in “Acute toxicity” (po) was over 2000 mg/kg.
The like results for `CCOc1ccc(S(=O)(=O)OCC(=O)CC(C)C)cc1` [Compound 132] were, in that order, 90%, 87% and over 2000 mg/kg.
For `CCCC(C)C(=O)COS(=O)(=O)c1ccc(OCC)cc1` (stereo not drawn) [Compound 133] the same measures were 91%, 111% and over 4500 mg/kg.
For `CCOc1ccc(S(=O)(=O)OCC(=O)CC(C)CC)cc1` (stereo not drawn) [Compound 136] the same measures were 99%, 80% and over 4500 mg/kg.
For the molecule `CCCCC(C)C(=O)COS(=O)(=O)c1ccc(OCC)cc1` (stereo not drawn) [Compound 139], the inhibition in vivo at 100 mg/kg in the data set with cholesterol was found to be 87%; in the data set with triglycerides, 84%. Also, the median lethal dose (LD50) in “Acute toxicity” (po) was over 3000 mg/kg.
For `CCCCC(CCC)C(=O)COS(=O)(=O)c1ccc(OCC)cc1` (stereo not drawn) [Compound 140] the same measures were 61%, 67% and over 3000 mg/kg.
The like results for `CCCCC(CCCC)C(=O)COS(=O)(=O)c1ccc(OCC)cc1` [Compound 141] were, in that order, 66%, 68% and over 3000 mg/kg.
For `CCCCCC(C)C(=O)COS(=O)(=O)c1ccc(OCC)cc1` (stereo not drawn) [Compound 146] the same measures were 77%, 85% and over 4000 mg/kg.
For the molecule `CCC(C)C(=O)COS(=O)(=O)c1c(C)cc(C)cc1C` (stereo not drawn) [Compound 147], the inhibition in vivo at 100 mg/kg with cholesterol amounted to 72%; in the data set on triglycerides it was 98%. The same molecule showed an LD50 in “Acute toxicity” (po) of over 3000 mg/kg.
The like results for `CCC(CC)C(=O)COS(=O)(=O)c1c(C)cc(C)cc1C` [Compound 148] were, in that order, 80%, 96% and over 3000 mg/kg.
For `CCCC(C)C(=O)COS(=O)(=O)c1c(C)cc(C)cc1C` (stereo not drawn) [Compound 150] the same measures were 79%, 84% and over 3000 mg/kg.
Regarding `CCCC(CCC)C(=O)COS(=O)(=O)c1c(C)cc(C)cc1C` [Compound 152], the inhibition in vivo at 100 mg/kg in the data set with cholesterol stood at 69%; in the data set with triglycerides, 78%. This molecule also came in with a 50% lethal dose (LD50) in “Acute toxicity” (po) of over 4000 mg/kg.
For `CCC(CC)CC(=O)COS(=O)(=O)c1c(C)cc(C)cc1C` [Compound 154] the same measures were 70%, 76% and over 4000 mg/kg.
For `CCCCC(C)C(=O)COS(=O)(=O)c1c(C)cc(C)cc1C` (stereo not drawn) [Compound 155] the same measures were 71%, 67% and over 3000 mg/kg.
As for `CCCCC(CCC)C(=O)COS(=O)(=O)c1c(C)cc(C)cc1C` (stereo not drawn) [Compound 156], the results for the inhibition in vivo at 100 mg/kg in the data set on cholesterol and in the data set on triglycerides were 62% and 58%, respectively. Besides, the LD50 in “Acute toxicity” (po) was determined as 4000 mg/kg.
`CCCCC(CCCC)C(=O)COS(=O)(=O)c1c(C)cc(C)cc1C` [Compound 157]: the results for the inhibition in vivo at 100 mg/kg with cholesterol and in the data set on triglycerides were 66% and 67%, respectively. In the data set “Acute toxicity” (po), the LD50 was over 4000 mg/kg.
The like results for `CCC(C)CCC(=O)COS(=O)(=O)c1c(C)cc(C)cc1C` (stereo not drawn) [Compound 159] were, in that order, 51%, 49% and over 4000 mg/kg.

Values taken from patent US4489091A, “Antilipemic and anti-inflammatory compositions containing sulfonate derivatives” (Taiho Pharmaceutical Company Limited, priority 1980, dated 1984).
